Results taken from patent publication US6706528B2, “Fluorescent magnesium indicators” (The United States of America as represented by the …, priority 2000, dated 2004).

Experiments:
[1] = UV absorption spectrum of the free indicator; format: physicochemical; conditions: buffer pH 7.2
Procedure: The emission and excitation fluorescence spectra of the compounds of the present invention (e.g., (1a-3a), (9a), (11a-13a), (15a), and (18a-24a)) were recorded using a 0.5 to 1.0 μM solution of the chelator buffered at pH 7.2. The solutions also contained 120 mM KCl and 20 mM NaCl to mimic the ionic strength of the intracellular medium. These solutions were titrated with stock solutions of MgCl2 containing an equimolar concentration of the 4-oxo-4H-quinolizine carboxylic acids to cancel out dilution effects during the titration. After each titration step, the emission and excitation fluorescence spectra were recorded. The apparent dissociation constants of indicators for Mg^2+ were determined from the fluorescence spectra as originally described by Grynkiewicz et al. (Grynkiewicz et al., J. Biol. Chem. 260: 3440-3450 [1985]).
In the following experiments, tetrahydrofuran (THF) was dried and distilled over sodium/benzophenone (Nalbenzophenone) prior to use. Dimethylformamide (DMF) was dried over molecular sieves (4 Å). Ethyl acetate, hexane, diethyl ether and all commercially available chemicals were used as received. After extractive work-up, the combined organic phases were dried on magnesium sulfate. Water used in the spectrophotometric and fluorescence experiments was filtered through a hydro PICOPURE® 2 filter. Thin layer chromatography was carried out on Sigma-Aldrich TLC plates (silica gel on polyester). Chromatographic purifications were done by flash chromatography using Merck Silica Gel, grade 9385, 230-400 mesh, 60 Å. Melting points were measured on a Fisher-Johns melting point apparatus and are shown uncorrected herein. ^1H-NMR spectra and ^13C-NMR spectra were recorded on a Nicolet NT 360 MHz NMR Spectrometer and a Varian UNITY plus 400 MHz NMR Spectrometer. Chemical shifts are reported in parts per million (δ), using tetramethylsilane (TMS) as the internal standard. The signals are expressed as an s (singlet), d (doublet), t (triplet), q (quartet), m (multiplet), or br (broad). High cresolution mass spectra were obtained from the Washington University Resources for Biomedical and Bio-organic Mass Spectrometry on samples which were chromatographically pure. Compounds (9a) and (21a) were analyzed by FABMS using NBA Li matrix. UV absorption spectra were recorded with a Bechman DU 650 Spectrophotometer using Fisherbrand™ semimicro quartz cells (Fisher Scientific). Fluorescence measurements were recorded with an Aminco-Bowman® Series 2 Spectrometer using quartz fluorimeter cuvets from Sigma. pH measurements were done using a Mettler Toledo MP 255 pH meter.
The buffered solutions used in fluorescence/Mg^2+ titration experiments contained 120 mM KCl, 20 mM NaCl, and 15 mM TRIS buffer, and were brought to pH=7.2 with concentrated HCl. A stock solution of 2 mg of the indicator in 5 ml buffer was prepared. To record a UV spectrum, the stock solutions were diluted 40 times (25 μl in 975 μl). For the fluorescence titration experiments, 25 μl of the stock solution was diluted 100 times with 2475 μl buffer. Emission fluorescence and excitation fluorescence spectra were recorded using the appropriate excitation wavelength derived from the UV spectrum of the free indicator. To 2475 μl of a MgCl2 solution (100 mM, 250 mM or 500 mM (2a)), 25 μl of the stock solution of the indicator was added, to cancel out dilution during the titration. To the solution of the free indicator, increasing amounts of the MgCl2/indicator solution were added. After each titration step, fluorescence emission and fluorescence excitation spectra were recorded.

[2] = fluorescent response to increasing Ca2+ concentrations; format: binding; conditions: for fluorescent response to increasing Ca^2+ concentrations: Ca^2+ up to 100 mM
[3] = fluorescence/pH titration to determine pKa; format: physicochemical; conditions: 10 mM MOPS buffer, from pH 4.29, read-out: pKa of the carboxylate group on the ring system
Procedure: However, it is not intended that the present invention be so limited nor is it necessary to understand the mechanism in order to practice the present invention. Thus, the indicators are present in the deprotonated form and available for complexation at physiological pH.
To determine the pKa of 1-bromo-8-(1,2-dicarboxyethyl)-4-oxo-4H-quinolizine-3-carboxylic acid (21a), 250 μl of the stock solution of 1-bromo-8-(1,2-dicarboxyethyl)-4-oxo-4H-quinolizine-3-carboxylic acid was added to 25 ml of 10 mM MOPS, pH 4.29. The fluorescence emission spectrum was recorded. A 0.1 M NaOH solution containing an equal concentration of 1-bromo-8-(1,2-dicarboxyethyl)-4-oxo-4H-quinolizine-3-carboxylic acid (21a), was added dropwise. After each pH increase of 0.2, the emission spectrum was recorded. At pH 6.31, no change of the fluorescence emission was observed.

Compound	melting point	A, absorption maximum of the free indicator [1]	also measured
O=C(O)c1cc(Br)c2ccccn2c1=O [Compound 9a, 1-bromo-4-oxo-4H-quinolizine-3-carboxylic acid]	> 250 °C	403 nm	fluorescent response to increasing Ca^2+ concentrations [2]: no fluorescent response
O=C(O)c1ccc2ccc3ccccc3n2c1=O [Compound 3a, [6,7]benzo-4-oxo-4H-quinolizine-3-carboxylic acid]	–	410 nm	–
O=C(O)c1cc(CC(C(=O)O)C(=O)O)c2ccccn2c1=O [Compound 13a, 1-(2,2-dicarboxyethyl)-4-oxo-4H-quinolizine-3-carboxylic acid]	–	395 nm	–
O=C(O)c1ccc2cc(Cl)ccn2c1=O [Compound 2a, 4-oxo-8-chloro-4H-quinolizine-3-carboxylic acid]	> 250 °C	391 nm	–
O=C(O)CC(C(=O)O)c1ccn2c(=O)c(C(=O)O)ccc2c1 (stereo not drawn) [Compound 20a, 8-(1,2-dicarboxyethyl)-4-oxo-4H-quinolizine-3-carboxylic acid]	–	390 nm	–
O=C(O)C(=Cc1cc(C(=O)O)c(=O)n2ccccc12)C(=O)O [Compound 12a, 1-(2,2-dicarboxyvinyl)-4-oxo-4H-quinolizine-3-carboxylic acid]	–	400 nm	–
O=C(O)c1ccc2ccccn2c1=O [Compound 1a, 4-oxo-4H-quinolizine-3-carboxylic acid]	–	385 nm	effect of Ca^2+ on the fluorescence emission ([2]; Ca^2+ levels in the nanomolar to submicromolar range): do not affect the fluorescence emission
O=C(O)Cc1ccn2c(=O)c(C(=O)O)ccc2c1 [Compound 19a, 8-(carboxymethyl)-4-oxo-4H-quinolizine-3-carboxylic acid]	–	380 nm	–
8-[3-(N,N-di(carboxymethyl)phenoxy]-4-oxo-4H-quinolizine-3-carboxylic acid [Compound 18a]	–	370 nm	–
Nc1ccn2c(=O)c(C(=O)O)ccc2c1 [Compound 15a, 8-amino-4-oxo-4H-quinolizine-3-carboxylic acid]	–	385 nm	–

Second part, led by results:

melting point	A, absorption maximum of the free indicator [1]	Compound	also measured
> 250 °C	406 nm	COc1ccc(-c2ccn3c(=O)c(C(=O)O)ccc3c2)cc1 [Compound 22a, 8-(4-methoxyphenyl)-4-oxo-4H-quinolizine-3-carboxylic acid]	–
–	440 nm	O=C(O)c1ccc2cc(-c3cc4ccccc4o3)ccn2c1=O [Compound 24a, 8-benzo[b]furyl-4-oxo-4H-quinolizine-3-carboxylic acid]	–
> 250 °C	407 nm	O=C(O)CC(C(=O)O)c1ccn2c(=O)c(C(=O)O)cc(Br)c2c1 (stereo not drawn) [Compound 21a, 1-bromo-8-(1,2-dicarboxyethyl)-4-oxo-4H-quinolizine-3-carboxylic acid]	pKa [3]: 5.6; fluorescent response to increasing Ca^2+ concentrations [2]: no fluorescent response
245 to 247 °C	386 nm	O=C(O)c1ccc2cc(-c3cccc4ccccc34)ccn2c1=O [Compound 23a, 8-(naphth-1-yl)-4-oxo-4H-quinolizine-3-carboxylic acid]	–
–	410 nm	1-[N,N-di(carboxymethyl)]-4-oxo-4H-quinolizine-3-carboxylic acid [Compound 11a]	–
